Measurements published in patent publication US9034825B2, “Treatment of myocardial injury with humanin analogs” (Albert Einstein College of Medicine of Yeshiva University, priority 2007, dated 2015).

Tests used:
Format in all cases: in vivo, rat
[1] = test system: Sprague-Dawley rats; assay: Peripheral IGFBP-3 infusion during hyperinsulinemic clamp
Protocol: To study the acute effects of an infusion of IGFBP-3, two groups of awake, unstressed, chronically catheterized Sprague-Dawley rats (˜300 g) were studied for 300 min (n=6 in each group) under hyperinsulinemic clamp (as previously described). From 120 min the rats received a primed continuous infusion of IGFBP-3 (0.06 mg/kg/hr) or saline (control) for an additional 3 h.
Plasma samples for determination of [^3H]glucose and [^3H] water specific activities were obtained at 10-min intervals during the basal and clamp periods. Steady state conditions for the plasma glucose concentration and specific activity were achieved within 90 min in all the studies. Plasma samples for determination of plasma IGF-1 (rat and human), IGFBP-3 (human IGFBP-3), GH, insulin, leptin, and FFA concentrations were collected at 30-min intervals throughout the study. All determinations were also performed on portal vein blood obtained at the end of the experiments. The total amount of blood drawn during the entire study for various assays is ˜3 cc. After separation of plasma (subsequently used for analysis), the red blood cells were reconstituted in saline and infused back into the animal.
Plasma glucose (sample volume 10 μl) was measured by the glucose oxidase method (Glucose Analyzer II, Beckman Instruments, Palo Alto, Calif.). Plasma [^3H]glucose radioactivity was measured in duplicates in the supernatants of Ba(OH)2 and ZnSO4 precipitates of plasma samples (20 μl) after evaporation to dryness to eliminate tritiated water. […] Plasma insulin (10 μl) was measured by RIA using rat insulin standard for basal studies and human insulin standard for insulin clamp studies. […] Plasma non-esterified fatty acid concentrations (5 μl) were determined by an enzymatic method with an automated kit according to the manufacturer's specification (Waco Pure Chemical Industries, Osaka, Japan). Rat IGF-1 (50 μl) was measured with a rIGF-1 ELISA kit (DSL, Webster, Tex.). Human IGF-1 (50 μl) was measured with an in-house kit developed in UCLA using a double monoclonal antibody ELISA with sensitivity of 0.1 ng/ml and an intra-assay and inter-assay coefficient of variations which are <6% and <8%, respectively, in the range from 1 to 6 ng/ml. Human IGFBP-3 (30 μl) was measured with an ELISA kit (DSL, Webster, Tex.). This kit reads both IGFBP-3 and NLS IGFBP-3. […] Serum levels of rat growth hormone were determined using an enzyme immunoassay (EIA) kit (ALPCO, Windham, N.H.) according to the manufacturer's instructions. […]
Under steady-state conditions for plasma glucose concentrations, the rate of glucose disappearance (Rd) equals the rate of glucose appearance (Ra). The latter was calculated as the ratio of the rate of infusion of [3-^3H]glucose (dpm/min) and the steady-state plasma [^3H]glucose specific activity (dpm/mg). […]

[2] = test system: phospho Akt and ACC in muscle; assay: Western blot of skeletal muscle insulin signaling after ICV infusion; conditions: muscle tissues from ICV-infused rats
Protocol: (§1) The indicated tissues were homogenized in 20 mM MOPS, 2 mM EGTA, 5 mM EDTA, 30 mM sodium fluoride, 40 mM beta-glycerophosphate, 10 mM sodium pyrophosphate, 2 mM orthovanadate, 0.5% NP-40 and complete protease inhibitor cocktail (Roche, Indianapolis, Ind., USA) and centrifuged at 12,000 g for 15 min and the supernatant was harvested while carefully avoiding the lipid layer on top. Protein concentration was measured with a BCA protein quantification kit (Pierce, Rockford, Ill., USA). Protein extracts were separated on 4-12% NuPAGE (Invitrogen, Carlsbad, Calif., USA) gels and were blotted onto Immobilon FL PVDF (Millipore, Billerica, Mass., USA). […] After three washes in TBS-T and a final wash in TBS the blots were scanned using the LI-COR Odyssey (LI-COR, Lincoln, Nebr., USA) and quantified using Odyssey 2.0 software based on direct fluorescence measurement.
(§2) For acute signaling studies, rats were injected ICV with either aCSF, 20 μg of HN or F6A (dissolved in aCSF) over 5 min, and sacrificed 30 min later. […] Samples were also obtained from these tissues at the end of the clamp and western blot analysis was performed as described previously (Muzumdar et al. 2003) The blots were scanned using the LI-COR Odyssey (LI-COR, Lincoln, Nebr., USA) and quantified using Odyssey 2.0 software based on direct fluorescence measurement. […]

[3] = test system: signaling kinases in hypothalamus and liver; assay: Western blot of other signaling in hypothalamus and liver after ICV infusion; conditions: ICV HN
Protocol: as §1, §2

[4] = 0.06 mg/kg/hr IV, hyperinsulinemic clamp

| Compound | human IGFBP-3 levels during the IGFBP-3 infusion ([1]; 0.06 mg/kg/hr IV for 3 h) [ng/mL] | higher HGP compared to controls [1, 4] [%] | reduction in insulin stimulated glucose uptake compared to controls [1, 4] [%] | level in rat CSF after peripheral infusion, mean ([1]; peripherally infused IGFBP-3) [ng/mL] | pAKT and acetyl CoA carboxylase in muscle compared to aCSF [2] | liver pAKT, PGC-1b, FAS, p38, CREB, ACC vs control groups [3] | phosphorylation in other signaling kinases in the hypothalamus including AKT [3] |
| --- | --- | --- | --- | --- | --- | --- | --- |
| IGFBP-3: non glycosylated hIGFBP-3 (IGF binding protein-3), provided by Celtrix | 1960 ± 360 | 30 | ~17 | 7 | – | – | – |
| CC[C@H](C)[C@H](NC(=O)[C@H](CCC(=O)O)NC(=O)[C@H](CO)NC(=O)[C@@H](NC(=O)[C@H](CC(C)C)NC(=O)[C@H](CC(C)C)NC(=O)[C@H](CC(C)C)NC(=O)[C@H](CC(C)C)NC(=O)[C@H](CS)NC(=O)[C@H](CO)NC(=O)[C@H](Cc1ccccc1)NC(=O)CNC(=O)[C@H](CCCNC(=N)N)NC(=O)[C@@H]1CCCN1C(=O)[C@H](C)NC(=O)[C@@H](N)CCSC)[C@@H](C)O)C(=O)N[C@@H](CC(=O)O)C(=O)N[C@@H](CC(C)C)C(=O)N1CCC[C@H]1C(=O)N[C@H](C(=O)N[C@@H](CCCCN)C(=O)N[C@@H](CCCNC(=N)N)C(=O)N[C@@H](CCCNC(=N)N)C(=O)N[C@@H](C)C(=O)O)C(C)C [Humanin, maprgfscll lltseidlpv krra] | – | – | – | – | significantly increased | no significant differences | Unchanged levels of phosphorylation |
